Counter-ions that a name gives are not always drawn.
What was measured:
yellow nutsedge = assay: Test Example 1: foliar treatment of pot-grown yellow nutsedge in greenhouse, herbicidal activity; assay type: in vivo, yellow nutsedge (Cyperus esculentus); conditions: sprayed over plants grown 26 days, examined 10 days after application, index 0 to 10
Source text: The values, “7”, “8”, “9”, and “10” of the herbicidal effect mean a excellent herbicidal effect.
(§1) Plastic pots each having a diameter of 11 cm and a depth of 8 cm were filled with upland soil, and then buried tubers of yellow nutsedge. And test plants were given 26 days to grow in greenhouse.An emulsifiable concentrate of compound A which had been obtained by well mixing 5 parts of compound A, 6 parts of Sorpol 3005X (produced by Toho Chemical Industry, Co., Ltd.) and 89 parts of xylene, a formulated glyphosate product (trade name: Roundup; seller, Monsanto Japan Limited), and a mixture of the emulsifiable concentrate of compound A and the formulated glyphosate product were independently diluted in their prescribed amounts with water. Each dilution was uniformly sprayed over the plants with a small sprayer, and then corn was further seeded. After the application the test plants were grown in the greenhouse for further 10 days and then, herbicidal activity and phytotoxicity to corn were examined.

corn = assay: Test Example 1: phytotoxicity to corn seeded after application; assay type: in vivo; parameters: key: “no harm” means that the phytotoxicity was unrecognizable or almost unrecognized; “small” means that a slight degree of phytotoxicity was recognized; “medium” means that a medium degree of phytotoxicity was recognized; “large” means that a large degree of phytotoxicity was recognized; conditions: corn seeded after spraying, examined after 10 days
Experimental: The phytotoxicity is evaluated like these, “no harm” means that the phytotoxicity was unrecognizable or almost unrecognized, “small” means that a slight degree of phytotoxicity was recognized, “medium” means that a medium degree of phytotoxicity was recognized, and “large” means that a large degree of phytotoxicity was recognized.
as §1

SMILES	Herbicidal activity Yellow nutsedge (yellow nutsedge; dosage 120 g/ha)	Phytotoxicity Corn (corn; dosage 120 g/ha)	Herbicidal activity Yellow nutsedge (yellow nutsedge; dosage 560 g/ha)	Phytotoxicity Corn (corn; dosage 560 g/ha)
COC(=O)C(C)Oc1cc(-n2c(=O)cc(C(F)(F)F)n(C)c2=O)c(F)cc1Cl (stereo not shown) [Compound A, methyl 2-[2-chloro-4-fluoro-5-{3-methyl-2,6-dioxo-4-(trifluoromethyl)-1,2,3,6-tetrahydropyrimidin-1-yl}phenoxy]propionate]	4	no harm	–	–
O=C(O)CNCP(=O)(O)O [Glyphosate isopropylamine salt, N-(phosphonomethyl)glycine]	–	–	1	no harm

From patent publication US6576592B1, “Herbicide composition” (Sumitomo Chemical Company, Limited, priority 1999, dated 2003)
